Data from PMC8449061, “A structural model for (GlcNAc)2 translocation via a periplasmic chitooligosaccharide-binding protein from marine Vibrio bacteria” (The Journal of Biological Chemistry, 2021).

How the values were obtained:
Format in all cases: binding
VhCBP E10A = assay: ITC titration of VhCBP mutant E10A with (GlcNAc)2
Excerpt: (§1) These proteins were used for ITC binding experiments with (GlcNAc)2 as the ligand. […] Degrees of conservation among five members of cluster/subcluster C-IV SBPs (VhCBP, VcCBP, TmCeBP, TmMnBP1, and TmMnBP2) are also represented by coloring dark red (high degree of conservation) to pale red (moderate degree of conservation) to white (low degree of conservation).
(§2) Figure 5 ITC profiles obtained from (GlcNAc)2titration using VhCBP WT and mutants. Thermograms (upper) and binding isotherms with theoretical fits (lower) of the individual titrations are presented. Titration experiments were conducted in 20 mM Tris HCl, pH 8.0, at 25 °C. ITC, isothermal titration calorimetry. VhCBP, CBP from Vibrio campbellii type strain ATCC BAA-1116.
(§3) ITC experiments were conducted by titrating 200 μM (GlcNAc)n (n = 2, 3, or 4) solutions from the injection syringe into 20 μM WT VhCBP in the sample cell. The titrations were performed in 20 mM Tris-HCl buffer, pH 8.0, by a PEAQ-ITC (Malvern Instruments) using the operational software installed in the equipment. Briefly, the temperature in the sample cell was maintained at 25 °C, and the difference in temperature (ΔT) between the reference cell and the sample cell was compensated by heaters fitted to the cells. The compensation energy utilized per second was plotted against experimental time. Peak integrations of the individual troughs were replotted against the molar ratio of the ligand to protein. The binding isotherm thus obtained was used for data-fitting analysis using the ‘One-Set of Sites’ model defined in MicroCal PEAQ-ITC Analysis Software to obtain Kd, ΔG°, ΔH°, and ΔS° terms. […] Titrations of (GlcNAc)2 to the individual VhCBP mutants were performed as described for the WT protein.
(§4) Table S2: ITC experimental conditions for titration of VhCBP and its mutants with (GlcNAc) 2-4 .
(§5) Table S3: Conditions for co-crystallization of VhCBP mutants with (GlcNAc) 2.

VhCBP S221A = assay: ITC titration of VhCBP mutant S221A with (GlcNAc)2
Excerpt: as §1, §2, §3, §4, §5

VhCBP WT = assay: ITC titration of WT VhCBP with (GlcNAc)2–4; conditions: for ΔG° / ΔH° / −TΔS° / Kd: 20 mM Tris-HCl pH 8.0, 25 °C; for ΔG° / ΔH° / −TΔS°: mean ± SD; for Kd: n fixed at 1, mean ± SD of three experiments; for fold lower affinity than (GlcNAc)2: from Kd values
Method: We previously reported ITC data for (GlcNAc)2–4 binding to VhCBP in 20 mM potassium phosphate, pH 8.0, at 4 °C ([13]). Here, we re-evaluated the ITC data by conducting binding experiments in Tris HCl, pH 8.0, at 25 °C using (GlcNAc)n (n = 2–4) as the ligands. The binding interactions for individual ligands were determined assuming a 1:1 stoichiometry.
as §2, §3
Table S2: ITC experimental conditions for titration of VhCBP and its mutants with (GlcNAc) 2-4 . […]

VhCBP W363A = assay: ITC titration of VhCBP mutant W363A with (GlcNAc)2
Excerpt: as §1, §2, §3, §4, §5

VhCBP F437A = assay: ITC titration of VhCBP mutant F437A with (GlcNAc)2
Excerpt: as §1, §2, §3, §4, §5

VhCBP N204A = assay: ITC titration of VhCBP mutant N204A with (GlcNAc)2
Excerpt: as §1, §2, §3, §4, §5

VhCBP N409A = assay: ITC titration of VhCBP mutant N409A with (GlcNAc)2
Excerpt: as §1, §2, §3, §4, §5

VhCBP D365A = assay: ITC titration of VhCBP mutant D365A with (GlcNAc)2
Excerpt: as §1, §2, §3, §4, §5

VhCBP W363A/W513A = assay: ITC titration of VhCBP double mutant W363A/W513A with (GlcNAc)2; conditions: 20 mM Tris HCl pH 8.0, 25 °C
Excerpt: To evaluate the contributions of the amino acid residues in (GlcNAc)2 binding, we carried out site-directed mutagenesis to substitute the designated residues and successfully produced nine single mutants, E10A, N204A, S221A, W363A, D365A, N409A, F411A, F437A, and W513A, and one double mutant, W363A/W513A. All proteins were purified to homogeneity by Ni-NTA affinity chromatography, followed by gel filtration, and their purities were checked by SDS-PAGE analysis (Fig. S2). These proteins were used for ITC binding experiments with (GlcNAc)2 as the ligand. […] The effects on ΔG° in the other mutants (E10A, N204A, S221A, N409A, and F411A) were moderate, although one mutation had been introduced into an amino acid with a high degree of conservation (Asn^204). Changes in ΔG° (ΔΔG°) resulting from all the mutations were mapped on the structure of VhCBP in complex with (GlcNAc)2 as shown in Figure 6B. Degrees of conservation among five members of cluster/subcluster C-IV SBPs (VhCBP, VcCBP, TmCeBP, TmMnBP1, and TmMnBP2) are also represented by coloring dark red (high degree of conservation) to pale red (moderate degree of conservation) to white (low degree of conservation).
Figure 5 ITC profiles obtained from (GlcNAc)2titration using VhCBP WT and mutants. Thermograms (upper) and binding isotherms with theoretical fits (lower) of the individual titrations are presented. […]

VhCBP W513A = assay: ITC titration of VhCBP mutant W513A with (GlcNAc)2
Excerpt: as §1, §2, §3, §4, §5

VhCBP F411A = assay: ITC titration of VhCBP mutant F411A with (GlcNAc)2
Excerpt: as §1, §2, §3, §4, §5

Compound: CC(=O)N[C@H]1[C@H](O[C@H]2[C@H](O)[C@@H](NC(C)=O)C(O)O[C@@H]2CO)O[C@H](CO)[C@@H](O)[C@@H]1O (stereo partly drawn) [(GlcNAc)2]
- ΔΔG° (VhCBP E10A; E10A versus WT): +1.9 ± 0.2 kcal.mol^−1
- Kd (VhCBP E10A; ITC, E10A, 20 mM Tris-HCl pH 8.0, 25 °C, mean ± SD): 0.71 ± 0.07 µM
- ΔG° (VhCBP E10A; ITC, E10A, pH 8.0, 25 °C): -8.4 ± 0.1 kcal/mol
- ΔH° (VhCBP E10A; ITC, E10A, pH 8.0, 25 °C): -8.8 ± 0.1 kcal/mol
- −TΔS° (VhCBP E10A; ITC, E10A, pH 8.0, 25 °C): 0.4 ± 0.2 kcal/mol
- Kd (VhCBP S221A; ITC, S221A, 20 mM Tris-HCl pH 8.0, 25 °C, mean ± SD): 0.07 ± 0.06 µM
- ΔG° (VhCBP S221A; ITC, S221A, pH 8.0, 25 °C): -10.2 ± 1.0 kcal/mol
- ΔH° (VhCBP S221A; ITC, S221A, pH 8.0, 25 °C): -5.3 ± 0.7 kcal/mol
- −TΔS° (VhCBP S221A; ITC, S221A, pH 8.0, 25 °C): -4.9 ± 1.4 kcal/mol
- ΔΔG° (VhCBP S221A; S221A versus WT): +0.1 ± 1.0 kcal.mol^−1
- ΔG° (VhCBP WT): -10.3 ± 0.3 kcal/mol
- ΔH° (VhCBP WT): -3.9 ± 0.1 kcal/mol
- −TΔS° (VhCBP WT): -6.4 ± 0.2 kcal/mol
- Kd (VhCBP WT): 0.03 ± 0.01 µM
- Kd (VhCBP W363A; ITC, W363A, 20 mM Tris-HCl pH 8.0, 25 °C, mean ± SD): 80.2 ± 19.9 µM
- ΔG° (VhCBP W363A; ITC, W363A, pH 8.0, 25 °C): -5.6 ± 0.1 kcal/mol
- ΔH° (VhCBP W363A; ITC, W363A, pH 8.0, 25 °C): -1.9 ± 1.8 kcal/mol
- −TΔS° (VhCBP W363A; ITC, W363A, pH 8.0, 25 °C): -3.7 ± 2.0 kcal/mol
- ΔΔG° (VhCBP W363A; W363A versus WT): +4.7 ± 0.4 kcal.mol^−1
- ΔΔG° (VhCBP F437A; F437A versus WT): +4.1 ± 0.3 kcal.mol^−1
- Kd (VhCBP F437A; ITC, F437A, 20 mM Tris-HCl pH 8.0, 25 °C, mean ± SD): 29.7 ± 0.5 µM
- ΔG° (VhCBP F437A; ITC, F437A, pH 8.0, 25 °C): -6.2 ± 0.0 kcal/mol
- ΔH° (VhCBP F437A; ITC, F437A, pH 8.0, 25 °C): -11.0 ± 0.4 kcal/mol
- Kd (VhCBP N204A; ITC, N204A, 20 mM Tris-HCl pH 8.0, 25 °C, mean ± SD): 0.83 ± 0.17 µM
- ΔG° (VhCBP N204A; ITC, N204A, pH 8.0, 25 °C): -8.3 ± 0.1 kcal/mol
- ΔH° (VhCBP N204A; ITC, N204A, pH 8.0, 25 °C): -0.75 ± 0.05 kcal/mol
- −TΔS° (VhCBP N204A; ITC, N204A, pH 8.0, 25 °C): -7.6 ± 0.2 kcal/mol
- ΔΔG° (VhCBP N204A; N204A versus WT): +2.1 ± 0.3 kcal.mol^−1
- Kd (VhCBP N409A; ITC, N409A, 20 mM Tris-HCl pH 8.0, 25 °C, mean ± SD): 0.45 ± 0.1 µM
- ΔG° (VhCBP N409A; ITC, N409A, pH 8.0, 25 °C): -8.7 ± 0.1 kcal/mol
- ΔH° (VhCBP N409A; ITC, N409A, pH 8.0, 25 °C): -9.6 ± 0.6 kcal/mol
- −TΔS° (VhCBP N409A; ITC, N409A, pH 8.0, 25 °C): 1.0 ± 0.7 kcal/mol
- ΔΔG° (VhCBP N409A; N409A versus WT): +1.6 ± 0.2 kcal.mol^−1
- ΔΔG° (VhCBP D365A; D365A versus WT): +8.6 ± 0.3 kcal.mol^−1
- Kd (VhCBP D365A; ITC, D365A, 20 mM Tris-HCl pH 8.0, 25 °C, mean ± SD): 65000 µM
- ΔG° (VhCBP D365A; ITC, D365A, pH 8.0, 25 °C): -1.6 ± 0.0 kcal/mol
- ΔH° (VhCBP D365A; ITC, D365A, pH 8.0, 25 °C): -11.3 ± 0.4 kcal/mol
- −TΔS° (VhCBP D365A; ITC, D365A, pH 8.0, 25 °C): 9.7 ± 0.4 kcal/mol
- binding detected by ITC (ND represents no detectable binding) (VhCBP W363A/W513A): did not exhibit any clear heat release
- Kd (VhCBP W513A; ITC, W513A ('half-open'/semiopen state), 20 mM Tris-HCl pH 8.0, 25 °C, mean ± SD): 36.8 ± 7.4 µM
- ΔG° (VhCBP W513A; ITC, W513A, pH 8.0, 25 °C): -6.1 ± 0.1 kcal/mol
- ΔH° (VhCBP W513A; ITC, W513A, pH 8.0, 25 °C): -5.8 ± 0.0 kcal/mol
- −TΔS° (VhCBP W513A; ITC, W513A, pH 8.0, 25 °C): -0.3 ± 0.1 kcal/mol
- lower affinity of semiopen state than the closed state (VhCBP W513A; W513A (semiopen) versus WT (closed), from Kd): 1200
- ΔΔG° (VhCBP W513A; W513A versus WT): +4.2 ± 0.3 kcal.mol^−1
- ΔΔG° (VhCBP F411A; F411A versus WT): +1.6 ± 0.3 kcal.mol^−1
- Kd (VhCBP F411A; ITC, F411A, 20 mM Tris-HCl pH 8.0, 25 °C, mean ± SD): 0.4 ± 0.07 µM
- ΔG° (VhCBP F411A; ITC, F411A, pH 8.0, 25 °C): -8.7 ± 0.1 kcal/mol
- ΔH° (VhCBP F411A; ITC, F411A, pH 8.0, 25 °C): -3.3 ± 0.1 kcal/mol
- −TΔS° (VhCBP F411A; ITC, F411A, pH 8.0, 25 °C): -5.4 ± 0.1 kcal/mol

Compound: CC(=O)N[C@H]1[C@H](O[C@H]2[C@H](O)[C@@H](NC(C)=O)C(O)O[C@@H]2CO)O[C@H](CO)[C@@H](O[C@@H]2O[C@H](CO)[C@@H](O)[C@H](O)[C@H]2NC(C)=O)[C@@H]1O (stereo partly drawn) [(GlcNAc)3]
- ΔG° (VhCBP WT): -9.7 ± 0.3 kcal/mol
- ΔH° (VhCBP WT): -4.7 ± 0.1 kcal/mol
- −TΔS° (VhCBP WT): -5.0 ± 0.3 kcal/mol
- Kd (VhCBP WT): 0.09 ± 0.05 µM
- fold lower affinity than (GlcNAc)2 (VhCBP WT): 3 fold

Compound: CC(=O)N[C@H]1[C@H](O[C@H]2[C@H](O)[C@@H](NC(C)=O)C(O)O[C@@H]2CO)O[C@H](CO)[C@@H](O[C@@H]2O[C@H](CO)[C@@H](O[C@@H]3O[C@H](CO)[C@@H](O)[C@H](O)[C@H]3NC(C)=O)[C@H](O)[C@H]2NC(C)=O)[C@@H]1O (stereo partly drawn) [(GlcNAc)4]
- ΔG° (VhCBP WT): -8.8 ± 0.3 kcal/mol
- ΔH° (VhCBP WT): -4.8 ± 0.6 kcal/mol
- −TΔS° (VhCBP WT): -4.0 ± 1.0 kcal/mol
- Kd (VhCBP WT): 0.4 ± 0.24 µM
- fold lower affinity than (GlcNAc)2 (VhCBP WT): 12 fold
